Values after ≈ are worked out from the molar mass of the structure shown. Like-named read-outs stand apart in the source and are kept apart here. Marks after values point to notes of the source that are not given here.
Experiments:
[1] = test system: MCF 7 (mammary carcinoma); experiment: cells; assay type: cell-based; conditions: for GI50 / CC50: Homo sapiens; for CC50: read-out: LC50; for TGI: complete inhibition of cell growth
Protocol: (§1) The tables below show the influence of the substances 1, 36 and 37 according to the invention on the growth of tumor cells, specifically the growth of the cell lines HM02 (gastroadenocarcinoma), HepG2 (liver carcinoma) and MCF 7 (mammary carcinoma).
(§2) The studies were carried out in accordance with the NCI guidelines (Grever et al., Seminars in Oncology 19 (1992), 622-638). The cells were cultured in 96-well microtitre plates in RPMI 1640 medium with 10% FCS (foetal calf serum). 24 h after dissemination of the cells, the substances 1 and 36 according to the invention dissolved in methanol were added and the cells were incubated for a further 48 h. The cell count was then determined.
(§3) GI50: denotes the concentration that effects a semi-maximum inhibition of the cell growth
(§4) TGI: denotes the concentration that effects complete inhibition of the cell growth

[2] = test system: HM02 (gastroadenocarcinoma); experiment: cells; assay type: cell-based; conditions: for CC50: read-out: LC50; for TGI: complete inhibition of cell growth
Protocol: as §1, §2, §3, §4

HepG2 (liver carcinoma) = experiment: cells; assay type: cell-based; conditions: for TGI: complete inhibition of cell growth; for GI50 / CC50 / inhibition at 0.5 µg/mL: Homo sapiens; for CC50: read-out: LC50; for inhibition at 0.5 µg/mL: HEP-G2, at 500 ng/ml, read-out: growth inhibition
Protocol: as §1, §2, §3, §4

[3] = test system: glioblastoma cells growing on a conventional carrier; experiment: Shape and carrier adhesion of glioblastoma cells; assay type: cell-based; conditions: 50 nM
From the text: In addition, the shape of glioblastoma cells growing on a conventional carrier as a function of the concentration of the substance 1 according to the invention was investigated (no figure). In the absence of substance 1 the cells have their typical dendritic shape and adhere to (sic) the carrier surface.

[4] = test system: HepG2 cells (liver carcinoma cells); experiment: Influence on the cell cycle, continuous flow cytometry, HepG2 cells; assay type: cell-based; conditions: 5 nM, 48 h incubation
Protocol: (§5) Glioblastoma cells and HepG2 cells (liver carcinoma cells) were in each case incubated for 48 h without the substance 1 according to the invention and in nutrient medium containing various concentrations of the substance 1 according to the invention. The cells were harvested and measured by continuous flow cytometry.
(§6) Bookmark not defined. to […]. for glioblastoma cells and […]. to […]. for HepG2 cells, in each case in plot form. In each case the DNA content is indicated on the X axis and the cell count is indicated on the Y axis. Bookmark not defined. to […]. were obtained in each case with 0 nM, 10 nM and 20 nM, respectively, of the preferred substance 1 according to the invention in the culture medium; the results shown in Figures […]. to […]. were obtained with 0 nM, 2 nM and 5 nM, respectively, of the preferred substance 1 according to the invention in the culture medium.
(§7) It can be seen that for both cell lines tested the absolute number and the number of cells in the S and in the G2 phase decreases with increasing concentration of substance 1. […] The preferred substance 1 according to the invention thus arrests the cell cycle in the G1 phase at the dosage suitable for the particular cell type.

Glioblastoma cells = experiment: Influence on the cell cycle, continuous flow cytometry, glioblastoma cells; assay type: cell-based; conditions: 20 nM, 48 h incubation
Protocol: as §5, §6, §7

HeLa cells (KB3.1) = conditions: cited from earlier work
[5] = MCF7, MCF 7, 48 h incubation, semi-maximum inhibition of cell growth, read-out: GI50

CC(=C/[C@H](C)C/C(C)=C/C=C/[C@H](O)[C@H]1CCCCO1)/C=C/[C@H]1CC=CC(=O)O1 [Substance 36]
GI50 ([1]; MCF7, 48 h): 100 ng/mL (≈ 0.259 µM) | CC50 ([1]; MCF7, 48 h): > 500 ng/mL | TGI ([1]; MCF 7, 48 h incubation): >500^c ng/ml | GI50 ([2]; HM02, 48 h): 5 ng/mL (≈ 0.0129 µM) | CC50 ([2]; HM02, 48 h): > 500 ng/mL | TGI ([2]; HM02, 48 h incubation): 140 ng/mL (≈ 0.362 µM) | TGI (HepG2 (liver carcinoma); HEP-G2, 48 h incubation): >500^c ng/ml | GI50 (HepG2 (liver carcinoma); HepG2, 48 h): 58 ng/mL (≈ 0.15 µM) | CC50 (HepG2 (liver carcinoma); HepG2, 48 h): > 500 ng/mL | inhibition at 0.5 µg/mL (HepG2 (liver carcinoma); HepG2): 60%

C/C=C/[C@H]1O[C@@H]([C@@H](O)/C=C/C=C(\C)C[C@@H](C)/C=C(C)\C=C\[C@@H]2CC=CC(=O)O2)C[C@H](O)[C@H]1C [Substance 37]
CC50 ([1]; MCF7, 48 h): > 100 ng/mL | GI50 [1, 5]: 25 ng/mL (≈ 0.0547 µM) | TGI ([1]; MCF 7, 48 h incubation): >100 ng/mL | GI50 ([2]; HM02, 48 h): 17 ng/mL (≈ 0.0372 µM) | CC50 ([2]; HM02, 48 h): > 100 ng/mL | TGI ([2]; HM02, 48 h incubation): >100^a ng/ml | inhibition at 0.1 µg/mL ([2]; HM02, read-out: growth inhibition): 90% | TGI (HepG2 (liver carcinoma); HEP-G2, 48 h incubation): >100 ng/mL | GI50 (HepG2 (liver carcinoma); HepG2, 48 h): 85 ng/mL (≈ 0.186 µM) | CC50 (HepG2 (liver carcinoma); HepG2, 48 h): > 100 ng/mL

C/C=C/[C@H]1O[C@@H]([C@@H](O)/C=C/C=C(\C)C[C@@H](C)/C=C(C)\C=C\[C@H]2CC=CC(=O)O2)C[C@H](O)[C@H]1C [Substance 1]
CC50 ([1]; MCF7, 48 h): < 500 ng/mL | GI50 [1, 5]: 16 ng/mL (≈ 0.035 µM) | TGI ([1]; MCF 7, 48 h incubation): >500^b ng/ml | CC50 ([2]; HM02, 48 h): 250 ng/mL (≈ 0.547 µM) | TGI ([2]; HM02, 48 h incubation): 24 ng/mL (≈ 0.0526 µM) | GI50 ([2]; HM02, 48 h incubation, semi-maximum inhibition of cell growth, read-out: GI50): < 5 ng/mL | TGI (HepG2 (liver carcinoma); HEP-G2, 48 h incubation): 500^b ng/ml | CC50 (HepG2 (liver carcinoma); HepG2, 48 h): > 500 ng/mL | GI50 (HepG2 (liver carcinoma); HepG2, HEP-G2, 48 h incubation, semi-maximum inhibition of cell growth, read-out: GI50): 13 ng/mL (≈ 0.0285 µM) | inhibition at 0.5 µg/mL (HepG2 (liver carcinoma); HepG2): 80% | cell shape and adhesion to the carrier surface [3]: the cells have largely lost their dendritic shape and detach easily from the carrier surface | cell cycle phase distribution (G1 arrest) [4]: virtually all cells tested are in the G1 phase | cell cycle phase distribution (G1 arrest) (Glioblastoma cells): virtually all cells tested are in the G1 phase

C/C=C/[C@@H]1O[C@H]([C@H](O)/C=C/C=C(\C)C[C@@H](C)/C=C(C)\C=C\[C@H]2CC=CC(=O)O2)C[C@@H](O)[C@@H]1C [Ratjadon, ratjadon]
IC50, inhibition of growth of HeLa cells (KB3.1) (HeLa cells (KB3.1)): 0.05 ng/mL

— US20040092581A1, “Ratjadone derivatives for inhibiting cell growth” (priority 2001, published 2004)
